Experimental data taken from the SangsterLogP compilation.

First: C/C=C(/C)C1(CC)C(=O)NC(=O)NC1=O
Second: C/C=C(\C)C1(CCC)C(=O)NC(=O)NC1=O
The logP of the first is lower: 1.15 for the first, 1.65 for the second.

First: C=C(C)C1(CCC(C)C)C(=O)NC(=O)NC1=O
Second: C=C(C)C1(CC(C)C)C(=O)NC(=O)NC1=O
The logP of the first is higher: 1.95 for the first, 1.45 for the second.

Compared with `C/C=C(\C)C1(C)C(=O)NC(=O)NC1=O`, `C/C=C(\CC)C1(C)C(=O)NC(=O)NC1=O` is higher in logP: 0.65 for the first, 1.15 for the second.

First: C=CCC1(/C(C)=C/C)C(=O)NC(=O)NC1=O
Second: C=C(C)C1(CC)C(=O)NC(=O)NC1=O
The logP of the first is higher: 2.15 for the first, 0.65 for the second.

Going from `C=C(C)C1(C)C(=O)NC(=O)NC1=O` to `CC/C=C(\C)C1(C)C(=O)NC(=O)NC1=O`, the logP rises from 0.15 to 1.15.

First: C/C=C(\CC)C1(CC)C(=O)NC(=O)NC1=O
Second: C/C=C(\CC)C1(CCC)C(=O)NC(=O)NC1=O
The logP of the first is lower: 1.65 for the first, 2.15 for the second.

First: C=C(C)C1(CCCCC)C(=O)NC(=O)NC1=O
Second: C=C(C)C1(CCCC)C(=O)NC(=O)NC1=O
The logP of the first is higher: 2.15 for the first, 1.65 for the second.

Going from `CC=C(CCCC)C1(CCC)C(=O)NC(=O)NC1=O` to `CC=C(CCC)C1(CC)C(=O)NC(=O)NC1=O`, the logP falls from 2.65 to 2.15.

Compared with `C=C(C)C1(CCC)C(=O)NC(=O)NC1=O`, `CC/C=C(/C)C1(CCC)C(=O)NC(=O)NC1=O` is higher in logP: 1.15 for the first, 2.15 for the second.

Going from `CC=C(CCCC)C1(C)C(=O)NC(=O)NC1=O` to `CC=C(CCC)C1(C)C(=O)NC(=O)NC1=O`, the logP falls from 2.15 to 1.65.

Compared with `CC/C=C(\C)C1(CC)C(=O)NC(=O)NC1=O`, `CCCC=C(CC)C1(CC)C(=O)NC(=O)NC1=O` is higher in logP: 1.65 for the first, 2.65 for the second.

`CC/C=C(\C)C1(C(C)C)C(=O)NC(=O)NC1=O` and `C/C=C(\CC)C1(C(C)C)C(=O)NC(=O)NC1=O` are the same in logP: 1.95 for the first, 1.95 for the second.

Work on `CC=C(C(C)C)C1(C)C(=O)NC(=O)NC1=O` yielded a logP of 1.45.
